Literature values, collected in patent US20210393726A1, “USE OF EXTRACT OF VEGETATION WATERS IN THE REGENERATION OF EPITHELIAL TISSUE” (FATTORIA LA VIALLAD DI GIANNI, ANTONIO E BANDINO LO FRANCO …, priority 2017, published 2021).

Conditions: high concentrations, up to 250-500 mg/kg/day

In the case of `OCCc1ccc(O)c(O)c1` [Hydroxytyrosol, hydroxytyrosol], the “toxic effect on in vivo administration” value is given as “does not have any toxic effect”.
